# Measurements from patent US7279582B2, “Retroviral protease inhibiting compounds” (priority 1995, dated 2007).
# Key:
# [1] = biological target: HIV protease (Human immunodeficiency virus type 1 group M subtype B, UniProt P04585); assay: Fluorogenic assay for screening inhibitors of HIV protease; format: biochemical; conditions: Inhibitor Concentration 0.5 nanomolar
# Method: Fluorogenic Assay for Screening Inhibitors of HIV Protease
# The inhibitory potency of the compound of the invention can be determined by the following method.
# The compound of the invention is dissolved in DMSO and a small aliquot further diluted with DMSO to 100 times the final concentration desired for testing. The reaction is carried out in a 6×50 mm tube in a total volume of 300 microliters. The final concentrations of the components in the reaction buffer are: 125 mM sodium acetate, 1 M sodium chloride, 5 mM dithiothreitol, 0.5 mg/ml bovine serum albumin, 1.3 μM fluorogenic substrate, 2% (v/v) dimethylsulfoxide, pH 4.5. After addition of inhibitor, the reaction mixture is placed in the fluorometer cell holder and incubated at 30° C. for several minutes. The reaction is initiated by the addition of a small aliquot of cold HIV protease. The fluorescence intensity (excitation 340 nm, emmision 490 nM) is recorded as a function of time. The reaction rate is determined for the first six to eight minutes. The observed rate is directly proportional to the moles of substrate cleaved-per unit time. The percent inhibition is 100×(1−(rate in presence of inhibitor)/(rate in absence of inhibitor)).
# Fluorogenic substrate: Dabcyl-Gaba-Ser-Gln-Asn-Tyr-Pro-lle-Val-Gln-EDANS wherein DABCYL=4-(4-dimethylamino-phenyl)azobenzoic acid, Gaba=γ-aminobutyric acid, and EDANS=5-((2-aminoethyl)amino)-naphthalene-1-sulfonic acid.
# [2] = tested on: HIVIIIB; assay: Anti-HIV activity in MT4 cells infected with HIVIIIB (MTT readout); format: cell-based; conditions: 0% plasma, 5 days, n=4 duplicate determinations
# Excerpt: (§1) The anti-HIV activity of the compound of the invention can be determined in MT4 cells according to the following procedure. MT4 cells were infected with cell-free supernatant of HIVIIIB (previously frozen with known 50% tissue culture infectious dose (TCID50) at 0.003 multiplicity of infection (MOI) for one hour. After one hour infection, cells were washed twice to remove residual viruses, resuspended in culture media and seeded into 96-well tissue culture plates at 1×10^4 cells per well with various half-log dilutions of compounds. Uninfected cells are included as toxicity and cell controls. RPMI 1640 media (Gibco) with 10% fetal bovine serum were used as culture media. Various concentrations of human serum (Sigma) 50%, 25% and 12.5% were added to culture media resulting in final concentration of 60%, 35% and 22.5% total serum. All assay plates were incubated in 37 deg. cent. incubator for 5 days. MTT (sigma, 5 mg/ml stock in PBS) was added to all wells at 25 ul per well, incubate for 4 hours. 20% SDS with 0.02 N HCI in water was added at 50 ul per well to lyse cells. Plates incubated overnight for complete lyses were read on a microtitre plate reader at 570/650 nm wavelengths to determine cell optical density (O.D.). Raw data were analysed for percent inhibition by the following formula: O.D. test well−O.D. virus control×100 O.D. cell control−O.D. virus control The 50% effective concentration (EC50) was calculated by the median effect equation (Chou, 1975, Proc. Int. Cong. Pharmacol. 6th p. 619) to determine the efficacy of compound. The 50% lethal concentration (LC50) was calculated using uninfected MT4 cells.
# (§2) Under these conditions, the following data were obtained (n=4 duplicate determinations: […]
# [3] = tested on: uninfected MT4 cells; format: cell-based; conditions: n=4 duplicate determinations, read-out: LC50 (the source's name)
# Excerpt: as §1, §2
Compound,Percent Inhibition [1],IC50 [2],CC50 [3]
"Cc1ccnc(C)c1OCC(=O)N[C@@H](Cc1ccccc1)[C@@H](O)C[C@H](Cc1ccccc1)NC(=O)[C@H](C(C)C)N1CCNC1=O [Example 15, (2S,3S,5S)-2-(2,4-Dimethyl-pyridin-3-oxy-acetyl)amino-3-hydroxy-5-(2S-(1-imidazolidin-2-onyl)-3-methyl-butanoyl)amino-1,6-diphenylhexane]",48%,0.119 µM,> 100000 nM
"Cc1cccc(C)c1OCC(=O)N[C@@H](Cc1ccccc1)[C@@H](O)C[C@H](Cc1ccccc1)NC(=O)[C@H](C(C)C)N1CCCC1=O [Example 17C, (2S,3S,5S)-2-(2,6-Dimethylphenoxyacetyl)amino-3-hydroxy-5-(2S-(1-pyrrolidin-2-onyl)-3-methyl-butanoyl)amino-1,6-diphenylhexane]",87.2%,0.051 µM,19000 nM
"Cc1cccc(C)c1OCC(=O)N[C@@H](Cc1ccccc1)[C@@H](O)C[C@H](Cc1ccccc1)NC(=O)[C@H](C(C)C)N1C(=O)CCC1=O [Example 18C, (2S,3S,5S)-2-(2,6-Dimethylphenoxyacetyl)amino-3-hydroxy-5-(2S-(1-pyrrolidin-2,5-dionyl)-3-methyl-butanoyl)amino-1,6-diphenylhexane]",57.8%,0.329 µM,19100 nM
"Cc1cccc(C)c1OCC(=O)N[C@@H](Cc1ccccc1)[C@@H](O)C[C@H](Cc1ccccc1)NC(=O)[C@H](C(C)C)N1CCC(=O)NC1=O [Example 25E, (2S,3S,5S)-2-(2,6-Dimethylphenoxyacetyl)amino-3-hydroxy-5-[2S-(1-tetrahydro-pyrimid-2,4-dionyl)-3-methylbutanoyl]amino-1,6-diphenylhexane]",100%,0.012 µM,22900 nM
"Cc1cccc(C)c1OCC(=O)N[C@@H](Cc1ccccc1)[C@@H](O)C[C@H](Cc1ccccc1)NC(=O)[C@H](C(C)C)N1CCNNC1=O [Example 26H, (2S,3S,5S)-2-(2,6-Dimethylphenoxyacetyl)amino-3-hydroxy-5[2S-(4-aza-1-tetrahydro-pyrimid-2-onyl)-3-methyl-butanoyl]amino-1,6-diphenylhexane]",94.6%,0.015 µM,33000 nM
"Cc1cccc(C)c1OCC(=O)N[C@@H](Cc1ccccc1)[C@@H](O)C[C@H](NC(=O)[C@H](C(C)C)N1CCCNC1=O)C(C)C [Example 27D, (2S,3S,5S)-2-(2,6-Dimethylphenoxyacetyl)amino-3-hydroxy-5-[2S-(1-tetrahydro-pyrimid-2-onyl)-3-methylbutanoyl]amino-1-phenyl-6-methylheptane]",92.9%,0.03 µM,56200 nM
"Cc1cccc(C)c1OCC(=O)N[C@@H](Cc1ccccc1)[C@@H](O)C[C@H](NC(=O)[C@H](C(C)C)N1CCC(=O)NC1=O)C(C)C [Example 28, (2S,3S,5S)-2-(2,6-Dimethylphenoxyacetyl)amino-3-hydroxy-5-[2S-(1-tetrahydro-pyrimid-2,4-dionyl)-3-methylbutanoyl]amino-1-phenyl-6-methylheptane]",86.6%,0.011 µM,72200 nM
"Cc1cccc(C)c1OCC(=O)N[C@@H](Cc1ccccc1)[C@@H](O)C[C@H](Cc1ccccc1)NC(=O)[C@H](C(C)C)N1CCNC(=O)C1=O [Example 29C, (2S,3S,5S)-2-(2,6-Dimethylphenoxyacetyl)amino-3-hydroxy-5-[2S-(1-piperazin-2,3-dionyl)-3-methylbutanoyl]amino-1,6-diphenylhexane]",72.6%,0.427 µM,56000 nM
"Cc1cccc(C)c1OCC(=O)N[C@@H](Cc1ccccc1)[C@@H](O)C[C@H](Cc1ccccc1)NC(=O)[C@H](C(C)C)N1CC=NNC1=O [Example 30B, (2S,3S,5S)-2-(2,6-Dimethylphenoxyacetyl)amino-3-hydroxy-5[2S-(4-aza-4,5-dehydro-1-pyrimid-2-onyl)-3-methyl-butanoyl]amino-1,6-diphenylhexane]",91.0%,0.003 µM,18000 nM
